Measurements reported in patent US20100260691A1, “Aqueous compositions containing a hydrophobic material” (priority 2006, published 2010).

What was measured:
[1] = Visual clarity of aqueous concentrate and dilutions; format: physicochemical; settings: for appearance of dilutions with water: dilution ratios as stated in each example; for appearance / dissolution of the aqueous concentrate: undiluted composition as prepared
Description: FIG. 2 summarizes a method that can be used for optimization. Once the components are identified, optimization may be performed by preparing several mixtures of the components in different ratios and observing the phase behavior. Plot the compositions producing clear systems for concentrate and dilutions and identify regions in the triangular composition space. For a fixed amount of the hydrophobic material or active ingredient, vary the ratios of the surfactant and polymer in water. Alternately, vary the concentration of the hydrophobic material or active ingredient, polymer and surfactant in different ratio and make up to 100% in water and plot the compositions providing clear systems for the concentrate and for dilutions.

[2] = Critical micelle concentration by surface tension; format: physicochemical; settings: in water
Description: Suitable polymer is selected by first determining the surface tension concentration profile of the surfactant and evaluating the CMC. This is done by preparing standard solutions of the surfactant in water at different concentration and dilutions and measuring surface tension of the solutions and plotting the data as shown in FIG. 1. Surface tension may be measured using a typical Tensiometer [DuNuoy Tensiometer, Surface Tensiomat, Fisher with a platinum ring with a mean circumference of 6 cm, and a ring/wire radius ratio of 53.8. As an example: starting with 1% solution of a typical surfactant like SDS, serial dilutions are made by diluting appropriate amounts of the 1% stock solution and diluting to 0.5%, 0.2%, 0.1% and 0.05, 0.02, 0.01, 0.005, 0.002, by adding appropriate amounts of de-ionized water to a weighed quantity of the stock solution. FIG. 1 is a plot of concentration in moles per liter of the SDS and surface tension at 25° C.

[3] = Particle size by Dynamic Light Scattering; format: physicochemical; settings: active in SDS/PVP K-30 aqueous systems and dilutions
Description: The hydrophobic material is present in the composition as an emulsion or a dispersion. The particle size of the hydrophobic material in the composition typically falls within the range of from about 5 to 1000 nm, more particularly from about 5 to 500 nm, still more particularly from about 10 to 100 nm and in accordance with certain embodiments from about 10 to 30 nm. Particle size refers to average particle radius and can be determined using dynamic light scattering techniques and equipment known to those of skill in the art. The compositions in accordance with certain aspects of the invention are visually clear due primarily to the small particle size of the hydrophobic material. Optical clarity can be measured using a turbidimeter or nephelometer.

[4] = Solubility / solubilization of Triclosan in water and SDS solutions; format: physicochemical; settings: SDS alone, no PVP
Method: This concentrate was serially diluted at 3/10, 2.5/10, 2/10, 1.5/10, 1/10, 0.8/10, 0.6/10, 0.4/10 with water. […] Minimum amount of SDS required to solubilize 0.075%-0.09% Triclosan was ˜0.4-0.5% range SDS. This corresponds to about two-three times the CMC for SDS, which was determined to be about 0.17%.

[5] = cited from earlier work

SMILES: CCOC(=O)c1ccc(O)cc1 [ethylparaben]
- appearance of dilutions with water [1]: clear solutions
- appearance / dissolution of the aqueous concentrate [1]: clear solutions

SMILES: CCCCCCCCCCCCOS(=O)(=O)[O-].[Na+] [SDS, sodium dodecylsulfate]
- CMC [2]: about 0.17%

SMILES: Oc1cc(Cl)ccc1Oc1ccc(Cl)cc1Cl [Triclosan]
- particle size (radius) [3]: 10-30 nm
- Minimum amount of SDS required to solubilize 0.075%-0.09% Triclosan [4]: 0.4-0.5 % SDS
- Minimum amount of SDS to solubilize 0.3% Triclosan in water [4]: ~2 % SDS
- level of SDS required to solubilize 3% Triclosan [4]: 25%
- solubility in water [5]: 10 ppm

SMILES: COC(=O)c1ccc(O)cc1 [methylparaben]
- appearance of dilutions with water [1]: clear solutions
- appearance / dissolution of the aqueous concentrate [1]: clear solutions
